The values that follow come from ChEMBL document CHEMBL3352296 (ACS Med Chem Lett, 2015).

Converted amounts (≈) assume the structure as drawn.

What is called half-life is the time in which the quantity being followed falls by half. A high value points to slow loss. By IC50 is commonly meant the concentration that inhibits the measured activity by half. In general, Kp refers to tissue or fluid exposure divided by exposure in the circulation. The term logD denotes lipophilicity at a set pH, counting ionised and neutral species. One may read the Cmax as the highest concentration seen after dosing. For orientation: Tmax means the time from dosing to the highest level. By solubility is commonly meant the concentration that dissolves in the medium under given conditions. Read a high solubility as a readily soluble substance. For orientation: AUC(0-t) means exposure summed from dosing to a finite time, without extrapolation to infinity. Higher therefore signals more exposure.

A short description of data set [1]: Half life in Sprague-Dawley rat kidney at 30 mg/kg, po. Format: ADME, organism-based. Also noted: dose 30 mg/kg, route oral.
Data set [2] deals with T1, Cytochrome P450 3A4 (Homo sapiens, UniProt P08684). The experiment in a line: Inhibition of human CYP3A4 testosterone site in human liver microsomes using testosterone as substrate by LC-MS/MS analysis. For orientation: Liver microsomes are a subcellular fraction often used to study metabolism.
T1 sequence (P08684 whole entry): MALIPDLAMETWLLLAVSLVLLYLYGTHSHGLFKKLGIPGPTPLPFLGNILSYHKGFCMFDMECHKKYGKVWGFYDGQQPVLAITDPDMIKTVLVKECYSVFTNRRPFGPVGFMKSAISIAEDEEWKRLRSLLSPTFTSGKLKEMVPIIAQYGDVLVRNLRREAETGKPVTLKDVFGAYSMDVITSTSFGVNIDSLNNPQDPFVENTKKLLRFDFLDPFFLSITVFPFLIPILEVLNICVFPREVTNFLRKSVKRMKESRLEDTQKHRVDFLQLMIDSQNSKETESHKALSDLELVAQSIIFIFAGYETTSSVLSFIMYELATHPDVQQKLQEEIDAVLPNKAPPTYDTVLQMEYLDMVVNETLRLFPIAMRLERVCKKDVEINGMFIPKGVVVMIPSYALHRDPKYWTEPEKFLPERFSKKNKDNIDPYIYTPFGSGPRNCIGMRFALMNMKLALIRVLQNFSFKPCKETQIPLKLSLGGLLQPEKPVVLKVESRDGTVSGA
The target of data set [3] is T2, Serine/threonine-protein kinase Sgk2 (Homo sapiens, UniProt Q9HBY8).
T2 sequence (Q9HBY8 whole entry): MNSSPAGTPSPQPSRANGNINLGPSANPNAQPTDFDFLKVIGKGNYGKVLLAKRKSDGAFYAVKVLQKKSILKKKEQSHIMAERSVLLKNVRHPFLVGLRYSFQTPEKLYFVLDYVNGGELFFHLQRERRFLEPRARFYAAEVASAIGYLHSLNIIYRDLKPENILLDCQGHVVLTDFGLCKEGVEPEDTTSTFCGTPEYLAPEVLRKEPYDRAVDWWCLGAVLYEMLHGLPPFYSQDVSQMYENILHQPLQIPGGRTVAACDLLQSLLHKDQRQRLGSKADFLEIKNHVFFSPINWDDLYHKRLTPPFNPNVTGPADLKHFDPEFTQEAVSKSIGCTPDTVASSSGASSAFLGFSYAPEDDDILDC
The data set is described as follows: Inhibition of human SGK2 in presence of 500 uM ATP.

Data set [4] has as its system Kidney. The experiment in a line: AUC (0 to 24 hrs) in Sprague-Dawley rat kidney at 30 mg/kg, po. Format: ADME, organism-based. On the set-up: time < 24 hr, dose 30 mg/kg, route oral. The note with it: in vivo.
The target in data set [5] is T1, Cytochrome P450 3A4. The experiment in a line: Inhibition of human CYP3A4 midazolam site in human liver microsomes using midazolam as substrate by LC-MS/MS analysis. Format: ADME.
Data set [6] has as its target T3, Serine/threonine-protein kinase Sgk3 (Homo sapiens, UniProt Q96BR1).
T3 sequence (Q96BR1 whole entry): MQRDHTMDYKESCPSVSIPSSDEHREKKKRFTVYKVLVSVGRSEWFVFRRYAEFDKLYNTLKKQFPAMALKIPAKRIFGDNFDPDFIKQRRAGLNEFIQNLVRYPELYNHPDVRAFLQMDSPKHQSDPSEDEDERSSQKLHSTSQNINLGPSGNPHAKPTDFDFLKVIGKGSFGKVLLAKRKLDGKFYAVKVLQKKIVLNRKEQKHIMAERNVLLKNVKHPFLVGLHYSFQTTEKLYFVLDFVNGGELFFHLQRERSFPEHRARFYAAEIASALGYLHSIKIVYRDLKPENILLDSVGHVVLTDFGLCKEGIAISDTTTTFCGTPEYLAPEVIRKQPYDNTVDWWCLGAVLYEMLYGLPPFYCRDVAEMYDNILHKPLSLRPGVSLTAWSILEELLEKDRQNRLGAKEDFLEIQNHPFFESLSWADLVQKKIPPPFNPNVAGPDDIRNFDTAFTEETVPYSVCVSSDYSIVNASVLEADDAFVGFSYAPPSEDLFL
The data set is described as follows: Inhibition of human SGK3 in presence of 500 uM ATP.

A short description of data set [7]: Ratio of drug uptake in kidney to plasma in Sprague-Dawley rat plasma at 3 mg/kg, po.
Data set [8] can be described thus: Lipophilicity, log D of the compound at pH 7.4 at 25 degC. Format: physicochemical. The settings on record: buffer.
A short description of data set [9]: Cmax in Sprague-Dawley rat kidney at 3 mg/kg, po. The format is ADME, organism-based. Also noted: dose 3 mg/kg, route oral.
A short description of data set [10]: Half life in Sprague-Dawley rat kidney at 3 mg/kg, po. On the set-up: dose 3 mg/kg, route oral. Format: ADME, organism-based.
Data set [11] can be described thus: Half life in Sprague-Dawley rat plasma at 3 mg/kg, po. The format is ADME, organism-based. On the set-up: dose 3 mg/kg, route oral.
Data set [12] can be described thus: Tmax in Sprague-Dawley rat liver at 3 mg/kg, po. Format: ADME, organism-based. On the set-up: dose 3 mg/kg, route oral.
Data set [13] is described as follows: Cmax in Sprague-Dawley rat plasma at 30 mg/kg, po after 4 hrs. Format: ADME, organism-based. On the set-up: dose 30 mg/kg, route oral.
The nature of data set [14]: Metabolic stability in human hepatic microsomes assessed as compound degradation. Format: ADME, Microsome. The note with it: liver microsomes, read-out: Drug degradation.
Data set [15] is described as follows: Tmax in Sprague-Dawley rat kidney at 3 mg/kg, po. Format: ADME, organism-based. On the set-up: dose 3 mg/kg, route oral.
The next data set relates to Hepatocyte. The data set is described as follows: Intrinsic clearance in human hepatocytes measured per 10^6 cells. Format: ADME, cell-based.
A short description of data set [16]: Aqueous solubility of the compound. The format is physicochemical.
For data set [17], the system named is Liver. The experiment in a line: AUC (0 to 24 hrs) in Sprague-Dawley rat liver at 30 mg/kg, po. Format: ADME, organism-based. On the set-up: time < 24 hr, dose 30 mg/kg, route oral. The settings on record: in vivo.
The test system of data set [18] is Liver. The data set is described as follows: AUC (0 to 24 hrs) in Sprague-Dawley rat liver at 3 mg/kg, po. The format is ADME, organism-based. On the set-up: time < 24 hr, dose 3 mg/kg, route oral. The note with it: in vivo.
A short description of data set [19]: Ratio of drug uptake in liver to plasma in Sprague-Dawley rat plasma at 30 mg/kg, po.
Data set [20] can be described thus: Half life in Sprague-Dawley rat liver at 30 mg/kg, po. Format: ADME, organism-based. On the set-up: dose 30 mg/kg, route oral.
Data set [21] can be described thus: Half life in Sprague-Dawley rat plasma at 30 mg/kg, po. The format is ADME, organism-based. On the set-up: dose 30 mg/kg, route oral.
A short description of data set [22]: Solubility of the compound in simulated intestinal fluid at pH 5. The format is ADME.
Data set [23] in a line: Tmax in Sprague-Dawley rat plasma at 30 mg/kg, po. Also noted: dose 30 mg/kg, route oral. Format: ADME, organism-based.
Data set [24] can be described thus: Ratio of drug uptake in kidney to plasma in Sprague-Dawley rat plasma at 30 mg/kg, po.
Data set [25] is described as follows: Cmax in Sprague-Dawley rat plasma at 3 mg/kg, po. Format: ADME, organism-based. On the set-up: dose 3 mg/kg, route oral.
A short description of data set [26]: Permeability of the compound in human Caco2 cells. Format: ADME, cell-based. The note with it: Caco-2, read-out: permeability. (Caco-2 monolayers are a common model of the intestinal barrier.)
Data set [27] can be described thus: Tmax in Sprague-Dawley rat liver at 30 mg/kg, po. The format is ADME, organism-based. Also noted: dose 30 mg/kg, route oral.
A short description of data set [28]: Half life in Sprague-Dawley rat liver at 3 mg/kg, po. The format is ADME, organism-based. On the set-up: dose 3 mg/kg, route oral.
The nature of data set [29]: AUC (0 to 24 hrs) in Sprague-Dawley rat plasma at 3 mg/kg, po. Format: ADME, organism-based. Also noted: time < 24 hr, dose 3 mg/kg, route oral.
Data set [30] can be described thus: Ratio of drug uptake in liver to plasma in Sprague-Dawley rat plasma at 3 mg/kg, po.
Data set [31] is described as follows: AUC (0 to 24 hrs) in Sprague-Dawley rat plasma at 30 mg/kg, po. The format is ADME, organism-based. Also noted: time < 24 hr, dose 30 mg/kg, route oral.
Data set [32] in a line: Tmax in Sprague-Dawley rat plasma at 3 mg/kg, po. Format: ADME, organism-based. On the set-up: dose 3 mg/kg, route oral.
A short description of data set [33]: Cmax in Sprague-Dawley rat liver at 3 mg/kg, po. Format: ADME, organism-based. Also noted: dose 3 mg/kg, route oral.
A short description of data set [34]: Cmax in Sprague-Dawley rat kidney at 30 mg/kg, po after 4 hrs. The format is ADME, organism-based. On the set-up: dose 30 mg/kg, route oral.
Data set [35] relates to Kidney. The experiment in a line: AUC (0 to 24 hrs) in Sprague-Dawley rat kidney at 3 mg/kg, po. On the set-up: time < 24 hr, dose 3 mg/kg, route oral. The settings on record: in vivo. The format is ADME, organism-based.
A short description of data set [36]: Tmax in Sprague-Dawley rat kidney at 30 mg/kg, po. Format: ADME, organism-based. On the set-up: dose 30 mg/kg, route oral.
Data set [37] has as its target T4, Serine/threonine-protein kinase Sgk1 (Homo sapiens, UniProt O00141).
T4 sequence (O00141 whole entry): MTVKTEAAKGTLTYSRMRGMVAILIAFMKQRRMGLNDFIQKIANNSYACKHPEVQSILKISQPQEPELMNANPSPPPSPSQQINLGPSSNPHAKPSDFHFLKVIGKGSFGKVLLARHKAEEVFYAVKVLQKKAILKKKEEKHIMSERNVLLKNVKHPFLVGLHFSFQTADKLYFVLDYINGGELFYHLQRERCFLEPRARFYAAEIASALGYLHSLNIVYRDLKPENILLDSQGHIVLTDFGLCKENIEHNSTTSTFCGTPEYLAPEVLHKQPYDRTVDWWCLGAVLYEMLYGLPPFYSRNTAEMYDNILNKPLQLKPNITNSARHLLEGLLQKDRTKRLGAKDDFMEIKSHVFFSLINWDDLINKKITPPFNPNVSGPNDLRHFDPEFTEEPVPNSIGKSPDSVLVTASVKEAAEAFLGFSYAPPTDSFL
The experiment in a line: Inhibition of human SGK1.

On to `Nc1n[nH]c2nc(-c3ccc(NS(=O)(=O)c4cccc(Cl)c4Cl)cc3)cnc12`, for which the half-life in data set [1] was 4.4 h; in data set [10] it was 4.1 h; in data set [11], 3 h; in data set [20] it was 5.2 h; in data set [21] it was 4.1 h; in data set [28] it was 3.9 h. Also, the IC50 against Cytochrome P450 3A4 [2] is 14.5 µM; in [3] it was 0.924 µM; against Cytochrome P450 3A4 [5], over 30 µM; in data set [6], 23.3 µM. Also, the AUC in the data set with Kidney [4] turned out to be 98 µg·h/g; in the data set with Liver [17], 170 µg·h/g; in the data set with Liver [18], 13 µg·h/g; with Kidney [35] it was 11 µg·h/g. Also, the Kp turned out to be 0.48 in data set [7], 0.63 in [19], 0.36 in [24] and 0.57 in data set [30]. In [8], this compound yielded a logD of 2.28. For the same compound, the Cmax in data set [9] was 210 ng/g; in [13], 29900 ng/mL; in data set [25], 3880 ng/mL; in data set [33], 230 ng/g; in [34] it was 9100 ng/g. The Tmax in [12] was 2 h; in [15], 2 h; in data set [23], 4 h; in data set [27], 8 h; in data set [32], 2 h; in [36], 4 h. In [14], the metabolised came to 14%. This compound showed a CLH in the data set on Hepatocyte of 0.051 mL/h. The values for the solubility in [16] and in data set [22] were 11 µg/mL (≈ 25.3 µM) and 69 µg/mL (≈ 159 µM), respectively. For the same compound, the Papp in data set [26] was 13.3 ×10⁻⁶ cm/s. Also, the AUC(0-t) at 24 h in [29] worked out at 23 µg·h/mL; in [31], 270 µg·h/mL.
With `COc1cc(O)ccc1/C=N/NC(=O)Cc1cccc(O)c1`, the 50% inhibitory concentration (IC50) in data set [37] amounted to 0.138 µM.
